Measured values reported in patent publication US20250057864A1, “COMPOSITION FOR IMPROVING EXERCISE PERFORMANCE COMPRISING GYPENOSIDE COMPOUND AS ACTIVE INGREDIENT” (BTC CORPORATION, priority 2022, published 2025).

Key:
[1] = tested on: ICR mice; assay: Weight-loaded forced swimming test, time to exhaustion; type: in vivo; conditions: forced swimming with 5% BW load, day 14, oral 7 mg/kg BW
Procedure: After an acclimatization period of 1 week, healthy animals were selected and divided into 6 groups of 10 mice per group according to the randomized block design. A normal control group was orally administered with 5% Tween 80-saline, and a composition was orally administered with Creatine monohydrate (Cr) at 75 mg/kg body weight (BW). Test groups (G2 to G5) were orally administered the compositions of Examples 1 to 4 dissolved in drinking water to 7 mg/kg body weight (BW) at regular times for 17 days. Throughout the test period, the experimental animals were given free access to solid feed for experimental animals (Cargill Agri Puna) and drinking water.
Weight-loaded forced swimming test was performed for the experimental animals as follows. A plastic pool (90×45×45 cm) was filled with water at the depth of 35 cm and the temperature of the water was maintained at 25±1° C. After attaching a weight (5% of the body weight of the experimental animal) to the tail, the experimental animal was forced to swim in the pool.
On days 10 and 12 after the administration of the test substance, swimming adaptation exercise was given twice for 15 minutes each. Two days after the final swimming adaptation exercise (on day 14 after the administration of the test substance), forced swim test was performed after fasting the experimental animal for 16 hour, and the time until exhaustion was measured. […]

[2] = tested on: ICR mice; assay: Treadmill test: exercise time and exercise capacity until exhaustion; type: in vivo; conditions: 6 weeks
Procedure: After an acclimatization period of 1 week, healthy animals were selected and divided into 6 groups according to the randomized block design. The animals were divided into (G1) a non-exercise control group, (G2) a non-exercise+7 mg/kg body weight (BW) Example 1 group, (G3) a non-exercise+7 mg/kg BW Example 2 group, (G4) a non-exercise+7 mg/kg BW Example 3 group, (G5) a non-exercise+7 mg/kg BW Example 4 group, (G6) an exercise control group, (G7) an exercise+7 mg/kg BW Example 1 group, (G8) an exercise+7 mg/kg BW Example 2 group, (G9) an exercise+7 mg/kg BW Example 3 group, (G10) an exercise+7 mg/kg BW Example 4 group, and (G11) an exercise+75 mg/kg BW Cr dose group. Each test group consisted of 10 animals.
The test substance was dissolved in drinking water and administered every day at regular times (2 hours before exercise) for 6 weeks. Throughout the test period, the experimental animals were given free access to solid feed for experimental animals (Cargill Agri Puna) and drinking water.
The endurance exercise of the animals was conducted for 6 weeks using a treadmill for small animals (Exer3/6 Treadmill, Columbus Instruments). The endurance exercise was conducted with 10 degrees of slope at 10 m/min, starting from for 15 minutes in the first week, for 20 minutes in the second week, for 25 minutes in the third week, for 30 minutes in the fourth week, for 35 minutes in the fifth week, and for 40 minutes in the sixth week.
After 6 weeks of the exercise training, in order to evaluate endurance exercise performance, exercise was started with 10 degrees of slope at 10 m/min for 5 minutes, and the intensity of the exercise was increased by 1 m/min every 1 minute up to the highest speed of 25 m/min. The duration of the exercise until exhaustion was measured. The experimental animal was judged to be exhausted if it was unable to run for 10 seconds or longer at the back of the treadmill. The exercise capacity of the experimental animal was calculated as follows.
In order to evaluate the performance of the effect of the test substances on endurance exercise performance, exercise was started with 10 degrees of slope at 10 m/min for 5 minutes, and the intensity of the exercise was increased by 1 m/min every 1 minute up to the highest speed of 25 m/min.

[3] = tested on: ICR mice; assay: Serum markers after 60 min forced swimming without weight load; type: in vivo; conditions: serum after 60 min forced swimming, day 17, oral 7 mg/kg BW
Procedure: On day 17 after the administration of the test substance, the experimental animal was forced to swim (for 60 minutes) without a weight load. Then, the experimental animal was anesthetized using an anesthetic prepared by dilution of tribromoethanol with tertiary amyl alcohol and blood was taken from the eye socket. The blood was placed in a serum-separating tube (Becton Dickinson) and left at room temperature for 30 minutes, centrifuged at 3,000 rpm for 20 minutes to separate the serum, and kept at −70° C. until analysis.
Blood urea nitrogen (BUN) and creatinine (CREA) content in the serum and the activities of alanine aminotransferase (ALT), aspartate aminotransferase (AST), creatine kinase (CK) and lactate dehydrogenase (LDH) were measured using a blood biochemistry analyzer (KoneLab 20 XT, Thermo Fisher Scientific). The serum lactate content was measured using a lactate assay kit (Abcam) according to the method proposed by the manufacturer.
The result of measuring the contents of lactate, BUN and CREA and the activities of CK, LDH, ALT and AST in the serum taken after forced swimming for 60 minutes without weight load is shown in Table 19.

[4] = tested on: C2C12 cells; assay: Intracellular ROS production in C2C12 cells (DCF-DA); type: cell-based, mice; conditions: oxidative stress by 50 μM TBHP, 1 h pretreatment with test substance
Procedure: C2C12 cells were dispensed into a 96-well plate at 1×10^4 cells/well and stabilized for 24 hours. Subsequently, the cells were cultured for 1 hour after exchanging with the culture medium with the myocyte differentiation medium containing each test substance. After 1 hour, the cells were washed with PBS and cultured further for 3 hours with a culture medium containing 50 μM tert-butyl hydrogen peroxide (TBHP), and the ROS level in the cells was measured using a DCF-DA assay kit (Abcam) according to the manufacturer's method.
In order to investigate the effect of each of the compositions according to Examples 1 to 4 on ROS production in C2C12 cells, ROS production was measured using 2′,7′-dichlorofluorescin diacetate (DCF-DA). DCF-DA was measured using the principle that it is oxidized by ROS in cells and is converted to DCF, which emits fluorescence.

[5] = non-exercise, 7 mg/kg BW, treadmill test
[6] = treadmill exercise, 7 mg/kg BW (Cr 75 mg/kg BW)

Structure (SMILES): CC(C)=CCC[C@](C)(O)C1CC[C@]2(C)C1[C@H](O)CC1[C@@]3(C)C[C@@H](O)C(OC4OC(CO)C(O)C(O)C4OC4OC(CO)C(O)C(O)C4O)C(C)(C)C3CC[C@]12C (stereo partly drawn) [Example 1, Gypenoside L]
- Time to exhaustion [1]: 1193.4 ± 176.8 s
- Exercise capacity [2, 5]: 1,583 ± 91 g
- Time until exhaustion (sec) [2, 5]: 1,472 ± 66 sec
- Exercise capacity [2, 6]: 2,832 ± 119^+ g
- Time until exhaustion (sec) [2, 6]: 2,393 ± 93^+ sec
- ALT [3]: 100.41 ± 19.75 U/L
- AST [3]: 160.81 ± 20.53 U/L
- BUN [3]: 8.15 ± 0.68 mg/dL
- CK [3]: 1896.1 ± 196.4 U/L
- CREA [3]: 0.35 ± 0.01 mg/dL
- LDH [3]: 1224.3 ± 162.1 U/L
- ROS production (fluorescence intensity) [4]: 22.12 ± 0.70 fluorescence intensity
